Consider nine molecules from patent US20210347662A1, “METHODS AND APPARATUS FOR CONTROLLING OR […] TIDE” (priority 2020, published 2021).

Test [1] deals with K. brevis. Kind of test: Microscope slide droplet test of additives on living K. brevis. As to conditions: microscopy; drop of Gulf of Mexico marine water with at least hundreds of living K. brevis organisms to start; a droplet of additive solution or about 1 to 0 mg solid added. It is filed as cell-based, Karenia brevis.
Test [2] concerns K. brevis. The test can be described thus: K. brevis cell count in test tubes of sea water after adding red tide inhibitors. It is filed as cell-based, Karenia brevis. As to conditions: 10 ml Gulf of Mexico sea water, initial count at least 1 million K. brevis cells per liter; one drop of concentrated solution or 5 mg solid; counted after two minutes. The procedure:
Experiments were performed to determine the K. brevis count with various red tide inhibitors.
A microscope with magnification up to 2500 times, was used along with a gridded Sedgewick-Rafter counting slide to record K. brevis cell counts. Testing was performed on Gulf of Mexico sea water containing K. brevis with an initial K. brevis cell count of at least 1 million K. brevis cells per liter. Test tubes contained 10 ml. each of this sea water, to which the following salts and other chemicals were added. For a concentrated solution of the additive, one drop is added and for solid additives, 5 mg is added. The test tubes contents containing the additives were gently mixed and then counts tabulated after two minutes.
Table 1 identifies the additives tested and the resultant cell count.

On to `CN(C)c1ccc2nc3ccc(=[N+](C)C)cc-3sc2c1` [Dilute methylene blue solution, methylene blue], for which the “Experimental Results” value in test [1] is “No living K. brevis”. Moreover, the “Cell Count” value in test [2] was “Very few”. With `O=S(=O)([O-])[O-].[Cu+2]` [Concentrated copper sulfate solution, copper sulfate], the “Experimental Results” value in test [1] is given as “No living K. brevis”. Further, the “Cell Count” value in test [2] is listed as “None”.

With “calcium sulfate [Concentrated calcium sulfate solution]”, in test [1], the “Experimental Results” value was “No living K. brevis”. Also, in test [2], the “Cell Count” value is on record as “None”. On to `[Ca+2].[OH-].[OH-]` [calcium hydroxide], for which the “Experimental Results” value in test [1] is given as “No living K. brevis”.

With `[O]=[Ca]` [Solid calcium oxide, calcium oxide], the “Cell Count” value in test [2] is “None”. Take `[Cl-].[Na+]` [Concentrated salt solution, sodium chloride]: the “Experimental Results” value in test [1] was “No living K. brevis”. In addition, the “Cell Count” value in test [2] is “None”.

As for `O=S(=O)([O-])[O-].[Mg+2]` [Concentrated magnesium sulfate solution, magnesium sulfate], the “Experimental Results” value in test [1] is “No living K. brevis”. In addition, the “Cell Count” value in test [2] is “None”.

On to `CN.Cl` [methylammonium chloride], for which the “Experimental Results” value in test [1] was “No living K. brevis”.

For the molecule `C[N+](C)(C)C.[Cl-]` [tetamethylammonium chloride], the “Experimental Results” value in test [1] is reported as “No living K. brevis”.
